The source of these data is US10919902B2, “Hetero-halo inhibitors of histone deacetylase” (Alkermes, Inc., priority 2015, dated 2021).

pEC50, pIC50: −log10 of the molar value.

The target of test [1] is recombinant human HDACs (Homo sapiens). In words: HDAC enzymatic assay. The test is classed as biochemical. Particulars: 5 nM HDAC enzyme, 5 h pre-incubation, 17 h reaction at 25° C.; isoform not given; read-out: IC50. The method, then:
All recombinant human HDACs were purchased from BPS Bioscience. The substrate, FAM-TSRHK(AC)KL-CONH, was synthesized at NanoSyn. Final assay reactions contained 100 mM HEPES (pH 7.5), 50 mM KCl, 0.1% BSA, 0.01% Triton X-100, 1% DMSO, 1 uM substrate and 5 nM HDAC enzyme. Enzyme and compounds were pre-incubated at 25° C. for 5 hours and reactions were initiated by addition of substrate. 10 uL reactions were incubated for 17 hours at 25° C. and terminated by the addition of 40 uL of buffer containing 100 mM HEPES (pH 7.5), 0.1% BSA, 0.01% Triton X-100 and 0.05% SDS. Substrate and product peptides present in each sample were separated electrophoretically using the LabChip 3000 capillary electrophoresis instrument. Change in the relative fluorescence intensity of the substrate and product peaks reflects enzyme activity. Reaction progress was determined as the product to sum ratio (PSR):P/(S+P), where P is the peak height of the product peptide and S is the peak height of the substrate peptide. Reactions were performed in duplicate at 12 concentrations, (3× serial dilutions starting at 30 uM). IC50 values were calculated using a 4 Parameter Logistic Model.

The test system of test [2] is SH-SY5Y cells. In words: Cell assay: SH-SY5Y cells, HDAC-Glo 2 reagent. The test is classed as cell-based. The conditions noted are these: Homo sapiens, 5 h incubation, CI-994 at 100 uM = 100% inhibition. The method, then:
SH-SY5Y cells (Sigma) were cultured in Eagle's Modified Essential Medium supplemented with 10% fetal bovine serum and pen/strep. Twenty-four hours prior to compound dosing 20 uL of cells were plated in white 384 well plates at a density of 1,500 cells/well. Compounds were serially diluted in neat DMSO and then diluted 1:100 v/v into media without FBS and mixed. Media was removed from the plated cells and the diluted compounds in serum free media (1% v/v final DMSO) were added and incubated at 37° C. for five hours. Ten uL of HDAC-Glo 2 reagent with 0.1% Triton X-100 was then added, the plate was mixed and allowed to develop at room temperature for 100 minutes. Plates were then read with a Spectramax LMax luminometer employing a 0.4 s integration time. Dose response curves were constructed with normalized data where CI-994 at 100 uM was defined as 100% inhibition and DMSO alone as 0% inhibition.

In the case of `CN1CCC(N2C[C@@H]3C(C(=O)Nc4nc(-c5ccc(F)cc5)ccc4N)[C@@H]3C2)CC1` (stereo partly drawn) [Compound 263], the pIC50 in test [1] was 5.30 to 6.30. In test [2], this compound showed a pEC50 of 5.30 to 6.30.

`Nc1ccc(-c2ccc(F)cc2)nc1NC(=O)C1[C@H]2CN(C3CCOCC3)C[C@@H]12` (stereo partly drawn) [Compound 264]: the pIC50 in test [1] was < 5.30. `Nc1cn(-c2ccccc2)nc1NC(=O)N1CC2COCC2C1` (stereo not drawn) [Compound 382]: the pIC50 in test [1] is < 5.30. As to `Nc1ccc(-c2ccccc2)nc1NC(=O)N1CCn2ccnc2C1` [Compound 197], in test [1], the pIC50 was < 5.30. With `CN1CCC(COC(=O)Nc2nc(-c3cccnc3)ccc2N)CC1` [Compound 375], in test [1], the pIC50 is < 5.30. On to `Nc1ccc(-c2cccs2)nc1NC(=O)N1Cc2cc(CN3CCCC3)cnc2C1` [Compound 144], for which, in test [1], the pIC50 was 6.30 to 7.00. Turning to `CN1CCC(c2cnc3c(c2)CN(C(=O)Nc2nc(-c4cccs4)ccc2N)C3)CC1` [Compound 250], the pIC50 in test [1] is 6.30 to 7.00. As for `CN1CCN(C[C@@H]2[C@H]3CN(C(=O)Nc4nc(-c5ccc(F)cc5)ccc4N)C[C@@H]23)CC1` [Compound 269], in test [1], the pIC50 was < 5.30. Same read-out and setting: for `Nc1ccc(-c2ccc(F)cc2)nc1NC(=O)N1Cc2cc(N3CCC3)cnc2C1` [Compound 254] the value was 5.30 to 6.30; for `Nc1cn(-c2ccccc2)nc1NC(=O)C1CCN(C2COC2)CC1` [Compound 359], < 5.30; for `Nc1cn(-c2ccccc2)nc1NC(=O)N1CCN(C2COC2)CC1` [Compound 356], < 5.30. Turning to `CN(C)Cc1ccc2c(c1)CN(C(=O)Nc1nc(-c3ccco3)ccc1N)C2` [Compound 365], in test [1], the pIC50 is 6.30 to 7.00. Take `Nc1ccc(-c2cccnc2)nc1NC(=O)c1nc2c(s1)CCN(CCF)C2` [Compound 164]: in test [1], the pIC50 is 5.30 to 6.30. Turning to `Nc1ccc(-c2ccc(F)cc2)nc1NC(=O)c1nc2c(s1)CCN(CCF)C2` [Compound 165], the pIC50 in test [1] was 6.30 to 7.00. In the case of `CN1CC2CN(C(=O)Nc3nc(-n4cccn4)ccc3N)CC2C1` (stereo not drawn) [Compound 184], the pIC50 in test [1] is < 5.30. The same measure, in the same setting: for `Nc1ccc(-c2ccc(F)cc2)nc1NC(=O)N1Cc2ccc(CN3CCCC3)cc2C1` [Compound 405] the value was 6.30 to 7.00; for `Nc1ccc(-n2cccn2)nc1NC(=O)C1CCN(Cc2ccccc2F)CC1` [Compound 370], < 5.30. On to `Cn1ncc2c1CN(C(=O)Nc1nc(-c3ccc(F)cc3)ccc1N)C2` [Compound 258], for which the negative logarithm of the IC50 (pIC50) in test [1] was 5.30 to 6.30.

Turning to `CN1CCC(c2cnc3c(c2)CN(C(=O)Nc2nc(-c4ccc(F)cc4)ccc2N)C3)CC1` [Compound 252], the negative logarithm of the IC50 (pIC50) in test [1] was 6.30 to 7.00. Take `Nc1ccc(-c2ccc(F)cc2)nc1NC(=O)N1Cc2cc(CN3CCCC3)cnc2C1` [Compound 155]: the pIC50 in test [1] is 6.30 to 7.00. On the same count and under the same terms, for `Nc1ccc(-c2ccc(F)cc2)nc1NC(=O)N1Cc2cnc(N3CCOCC3)cc2C1` [Compound 150] the value was 6.30 to 7.00; for `Nc1ccc(-c2ccc(F)cc2)nc1NC(=O)N1CC2CCCC2C1` (stereo not drawn) [Compound 385], 5.30 to 6.30.

In the case of `COc1cccc(CN2CCCC3(CCN(C(=O)Nc4nc(-c5ccc(F)cc5)ccc4N)C3)C2)c1` (stereo not drawn) [Compound 222], in test [1], the pIC50 was < 5.30. Same read-out and setting: next, `Nc1ccc(-c2ccc(F)cc2)nc1NC(=O)N1CC2CC(NC3COC3)CC2C1` (stereo not drawn) [Compound 172]: 5.30 to 6.30. On to `Nc1ccc(-c2ccc(F)cc2)nc1NC(=O)N1Cc2cc(N3CCC3)cnc2C1` [Compound 157], for which the pIC50 in test [1] is 6.30 to 7.00. For the compound `CC(=O)N1CCC(C(=O)Nc2nn(-c3ccccc3)cc2N)CC1` [Compound 358], the pIC50 in test [1] was < 5.30. For `COC1CCN(Cc2ccc3c(c2)CN(C(=O)Nc2nc(-c4ccc(F)cc4)ccc2N)C3)C1` (stereo not drawn) [Compound 363], in test [1], the pIC50 was 6.30 to 7.00. As to `Cc1cc2c(cn1)CN(C(=O)Nc1nc(-c3ccc(F)cc3)ccc1N)C2` [Compound 151], the pIC50 in test [1] is 6.30 to 7.00. Take `COc1ccc(-c2ccc(N)c(NC(=O)N3Cc4ccncc4C3)n2)cc1` [Compound 173]: the pIC50 in test [1] was 5.30 to 6.30. Take `Nc1ccc(-n2cccn2)nc1NC(=O)N1CC2CN(CCF)CC2C1` (stereo not drawn) [Compound 167]: the pIC50 in test [1] is < 5.30. On to `Nc1ccc(-c2ccc(F)cc2)nc1NC(=O)N1Cc2cccnc2C1` [Compound 397], for which the negative-log IC50 (pIC50) in test [1] was 6.30 to 7.00.

In the case of `Nc1ccc(-c2ccc(F)cc2)nc1NC(=O)N1C[C@@H]2[C@@H](CO)[C@@H]2C1` [Compound 238], in test [1], the negative logarithm of the IC50 (pIC50) is 5.30 to 6.30. `Nc1ccc(-c2ccc(F)cc2)nc1NC(=O)N1CCN2CCCC2C1` (stereo not drawn) [Compound 224]: in test [1], the pIC50 is < 5.30. With `Nc1ccc(-c2ccc(F)cc2)nc1NC(=O)N1Cc2ccc(CN3CCC(C(F)(F)F)C3)cc2C1` (stereo not drawn) [Compound 408], in test [1], the pIC50 is 6.30 to 7.00. As for `Nc1ccc(-c2cccnc2)nc1NC(=O)N1Cc2cc(F)cnc2C1` [Compound 218], in test [1], the pIC50 was < 5.30.

As usually defined, the pIC50 is −log10 of the IC50, conventionally taken in molar units. As usually defined, the pEC50 is −log10 of the EC50, conventionally taken in molar units.
